Experimental findings from patent US9757337B2, “Multicompartmental lipid nanoparticles” (CENTRE NATIONAL DE LA RECHERCHE SCIENTIFIQUE—CNRS, priority 2013, dated 2017) are described below.

The data set can be described thus: Stability of quercetin in various fluids quantified by HPLC assay. The class given is physicochemical. The procedure:
To this end, the stability of quercetin in various fluids was quantified by means of an HPLC assay. The various fluids studied were simulated gastric fluid (SGF, US Pharmacopeia) at room temperature and at 37° C., simulated intestinal fluid (SIF, US Pharmacopeia), 10 mM HEPES buffer (pH 7.4) and room-temperature water.

As to `O=c1c(O)c(-c2ccc(O)c(O)c2)oc2cc(O)cc(O)c12` [quercetin], the “stability in more acidic fluids compared with room-temperature water” value (more acidic fluids (SGF), samples over 24 hours) was “more stable”. For the same molecule, the quercetin degraded result (room-temperature water, within 17 hours) is given as “about 50%”.
